What was measured:
Assay type in all cases: cell-based
[1] = tested on: HIV-189.6; experiment: Inhibiting activity to HIV-1 infection to human PBMC (p24 antigen, EIA), HIV-1 89.6
Experimental: (§1) Human PBMC (peripheral blood mononuclear cell) was isolated from HIV-negative healthy persons by a Ficol-Hipaque density-gradient centrifugation and incubated for 3 days in the presence of 10 μg/ml PHA (phytohemagglutinin). PHA-stimulated PBMC was suspended in RPMI 1640 containing 10% serum to give a density of 1×10^5 cells/ml and poured into a 96-well microplate. Furthermore, in the presence of a sole test compound in various concentrations or in the co-presence with other anti-HIV inhibitor (such as AZT (zidovudin) or AMD 3100), various HIV-1 cell lines of 50 TCID50 (such as HIV-1LAI, HIV-1NL4-3, HIV-1BaL, HIV-1JRFL, HIV-189.6, HIV-1 HIV-1ERS104pre, HIV-1JSL, HIV-1MM, HIV-1TM and HIV-1MOKW) were exposed. After being incubated for 7 days, the amount of HIV-1p24 antigen on the supernatant liquid of the incubation was measured by an EIA method using Lumipulse F (Fuji Rebio).
(§2) Inhibiting effect to HIV-1 infection to human PBMC was investigated by the joint use of the compound of Example 2(1) with AMD 3100. The compound of Example 2(1) in various concentrations and AMD 3100 were added either solely or combinably and an assay was carried out. Inhibiting effects of both compounds when the p24 amount where the compounds are not added is defined as 100% are shown in terms of % control.

[2] = tested on: Mixed Virus of HIV-1BaL and HIV-1NL4-3 (1:1); experiment: Inhibiting activity to HIV-1 infection to human PBMC (p24 antigen, EIA), mixed virus; details: HIV-1BaL + HIV-1NL4-3 (1:1)
Experimental: as §1, §2

[3] = tested on: HIV-1MOKW; experiment: Inhibiting activity to HIV-1 infection to human PBMC (p24 antigen, EIA), wild-type HIV-1; details: Human immunodeficiency virus 1, read-out: IC50, inhibiting effect to infection to human PBMC
Experimental: as §1
(§3) Inhibiting effect of the compound of Example 2(1) to human PBMC infected by wild-type HIV-1 (HIV-1MOKW) and by multidrug resistant HIV-1 (HIV-1JSL and HIV-1MM) to reverse transcriptase inhibitor and protease inhibitor was investigated.

[4] = tested on: HIV-1JSL; experiment: Inhibiting activity to HIV-1 infection to human PBMC (p24 antigen, EIA), multidrug resistant HIV-1; details: Human immunodeficiency virus 1, PBMC, read-out: IC50, inhibiting effect to infection to human PBMC
Experimental: as §1, §3

[5] = tested on: HIV-1MM; experiment: as above; details: Human immunodeficiency virus 1, PBMC, read-out: IC50, inhibiting effect to infection to human PBMC
Experimental: as §1, §3

[6] = tested on: HIV-1BaL; experiment: Inhibiting activity to HIV-1 infection to human PBMC (p24 antigen, EIA), HIV-1BaL
Experimental: as §1
(§4) Inhibiting effect to human PBMC infected by HIV-1 HIV-1BaL by the joint use of the compound of Example 2(1) and saquinavir (SQV) which is an anti-HIV inhibitor was investigated. Inhibiting effects of both compounds when the p24 amount where the compounds are not added is defined as 100% are shown in terms of % control.
as §4, with “75(54)” for “2(1)”, “inhibitor […]” for “inhibitor”

[7] = Example 2(1) 0.1 μM + AMD 3100 0.01 μM
[8] = Example 2(1) 0.1 μM + AMD 3100 0.1 μM
[9] = Example 2(1) 1 μM + AMD 3100 0.01 μM
[10] = Example 2(1) 1 μM + AMD 3100 0.1 μM

## c1cc(CN2CCCNCCNCCCNCC2)ccc1CN1CCCNCCNCCCNCC1 [AMD 3100, reference compound]
[1]; AMD 3100 0.01 μM alone
  p24 amount, % control (no compound = 100%): 58.3 % control
[1]; AMD 3100 0.1 μM alone
  p24 amount, % control (no compound = 100%): 6.9 % control
[2]; AMD 3100 0.01 μM alone
  p24 amount, % control (no compound = 100%): 59.1 % control
[2]; AMD 3100 0.1 μM alone
  p24 amount, % control (no compound = 100%): 44.2 % control

## CCCCN1C(=O)C(CC2CCCCC2)NC(=O)C12CCN(Cc1ccc3c(c1)OCCO3)CC2.Cl (stereo not shown) [Example 2(1), 9-(1,4-benzodioxan-6-ylmethyl)-1-butyl-3-cyclohexylmethyl-2,5-dioxo-1,4,9-triazaspiro[5.5]undecane.hydrochloride]
[1]; [7]
  p24 amount, % control (no compound = 100%): 38.0 % control
[1]; [8]
  p24 amount, % control (no compound = 100%): 6.0 % control
[1]; Example 2(1) 0.1 μM alone
  p24 amount, % control (no compound = 100%): 72.0 % control
[1]; [9]
  p24 amount, % control (no compound = 100%): 15.1 % control
[1]; [10]
  p24 amount, % control (no compound = 100%): 0.7 % control
[1]; Example 2(1) 1 μM alone
  p24 amount, % control (no compound = 100%): 64.5 % control
[2]; [7]
  p24 amount, % control (no compound = 100%): 32.1 % control
[2]; [8]
  p24 amount, % control (no compound = 100%): 17.8 % control
[2]; Example 2(1) 0.1 μM alone
  p24 amount, % control (no compound = 100%): 63.8 % control
[2]; [9]
  p24 amount, % control (no compound = 100%): 10.5 % control
[2]; [10]
  p24 amount, % control (no compound = 100%): 1.5 % control
[2]; Example 2(1) 1 μM alone
  p24 amount, % control (no compound = 100%): 52.4 % control
[3]
  IC50: 40 ± 29 nM
[4]
  IC50: 64 ± 11 nM
[5]
  IC50: 48 ± 62 nM
[6]; Example 2(1) 0.1 μM + Saquinavir 0.01 μM
  p24 amount, % control (no compound = 100%): 44.3 % control
[6]; Example 2(1) 0.1 μM alone
  p24 amount, % control (no compound = 100%): 75.4 % control

## CCCCN1C(=O)[C@@H]([C@H](O)C2CCCCC2)NC(=O)C12CCN(Cc1ccc(Oc3ccc(C(=O)O)cc3)cc1)CC2.Cl [Example 75(54), (3R)-1-butyl-2,5-dioxo-3-((1R)-1-hydroxy-1-cyclohexylmethyl)-9-(4-(4-carboxyphenyloxy)phenylmethyl)-1,4,9-triazaspiro[5.5]undecane.hydrochloride]
[6]; Example 75(54) 0.2 nM + Saquinavir 1 nM
  p24 amount, % control (no compound = 100%): 66.0 % control
[6]; Example 75(54) 0.2 nM + Saquinavir 5 nM
  p24 amount, % control (no compound = 100%): 52.0 % control
[6]; Example 75(54) 0.2 nM + Saquinavir 25 nM
  p24 amount, % control (no compound = 100%): 5.7 % control
[6]; Example 75(54) 0.2 nM alone
  p24 amount, % control (no compound = 100%): 64.2 % control
[6]; Example 75(54) 1 nM + Saquinavir 1 nM
  p24 amount, % control (no compound = 100%): 32.8 % control
[6]; Example 75(54) 1 nM + Saquinavir 5 nM
  p24 amount, % control (no compound = 100%): 29.3 % control
[6]; Example 75(54) 1 nM + Saquinavir 25 nM
  p24 amount, % control (no compound = 100%): 3.8 % control
[6]; Example 75(54) 1 nM alone
  p24 amount, % control (no compound = 100%): 34.2 % control
[6]; Example 75(54) 5 nM + Saquinavir 1 nM
  p24 amount, % control (no compound = 100%): 10.8 % control
[6]; Example 75(54) 5 nM + Saquinavir 5 nM
  p24 amount, % control (no compound = 100%): 6.1 % control
[6]; Example 75(54) 5 nM + Saquinavir 25 nM
  p24 amount, % control (no compound = 100%): 1.6 % control
[6]; Example 75(54) 5 nM alone
  p24 amount, % control (no compound = 100%): 10.6 % control

## CC(C)(C)NC(=O)[C@@H]1C[C@@H]2CCCC[C@@H]2CN1C[C@@H](O)[C@H](Cc1ccccc1)NC(=O)[C@H](CC(N)=O)NC(=O)c1ccc2ccccc2n1 [Saquinavir, saquinavir, reference compound]
[6]; Saquinavir 1 nM alone
  p24 amount, % control (no compound = 100%): 78.1 % control
[6]; Saquinavir 5 nM alone
  p24 amount, % control (no compound = 100%): 67.7 % control
[6]; Saquinavir 0.01 μM alone
  p24 amount, % control (no compound = 100%): 53.8 % control
[6]; Saquinavir 25 nM alone
  p24 amount, % control (no compound = 100%): 5.9 % control

— US7285552B2, “Drugs containing triazaspiro[5.5]undecane derivatives as the active ingredient” (Ono Pharmaceuticals Co., Ltd., priority 2001, dated 2007)
